In US10562891B2, “Quinazolinones as PARP14 inhibitors” (Ribon Therapeutics Inc., priority 2017, dated 2020):
Counter-ions that a name gives are not always drawn.

Molecular target: catalytic domain of human PARP14 (Homo sapiens (Human), UniProt Q460N5)
Experiment: Enzymatic assay for inhibition of PARP14 (DELFIA, auto-modification with biotin-NAD)
Type: biochemical
Conditions: auto-modification of PARP14 by biotin-NAD, 50 nM PARP14, 3 μM biotin-NAD
Experimental: An N-terminal His-TEV fusion tag was used to purify the protein from cell lysates. The His-TEV tag was left on the protein for use in the enzymatic assay.
Enzymatic inhibition of PARP14 was measured using a dissociation-enhanced lanthanide fluorescence immunoassay (DELFIA) monitoring the auto-modification of PARP14 by biotinylated nicotinamide adenine dinucleotide (biotin-NAD). 1 μL of a dose response curve of each test compound was spotted in 384-well nickel-coated white microplates (Thermo) using a Mosquito (TTP Labtech). Reactions were performed in a 50 μL volume by adding 40 μL of PARP14 in assay buffer (20 mM HEPES pH==8, 100 mM NaCl, 0.1% bovine serum albumin, 2 mM DTT and 0.002%0 Tween20), incubating with test compound at 25° C. for 30 min, then adding 10 μL of biotin-NAD (Biolog). The final concentrations of PARP14 and biotin-NAD are 50 nM and 3 μM, respectively. Reactions proceeded at 25° C. for 3 h, then were quenched with 5 μL of 10 mM unmodified nicotinamide adenine dinucleotide (Sigma-Aldrich). The quenched reactions were washed 3 times with 100 μL of TBST wash buffer (50 mM Tris-HCl, 150 mM NaCl and 0.1% Tween20). Next, to the washed and dried plate was added 25 μL of DELFIA Europium-N1 streptavidin (Perkin Elmer) diluted in DELFIA assay buffer (Perkin Elmer). After a 30 min incubation at 25° C., the plate was washed 5 times with TBST wash buffer. Finally, 25 μL of DELFIA enhancement solution was added. After a 5 min incubation the plate was read on an Envision platereader equipped with a LANCE/DELFIA top mirror (Perkin Elmer) using excitation of 340 nm and emission of 615 nm to measure the amount of Europium present in each well, informing on the amount of biotin-NAD that was transferred in the automodification reaction.
[formula] where ex615cmpd is the emission from the compound treated well, ex615min is the emission from the rucaparib treated positive control well and ex615max is the emission from the DMSO treated negative control well.
The % inhibition values were plotted as a function of compound concentration and the following 4-parameter fit was applied to derive the IC50 values:
[formula] where top and bottom are normally allowed to float, but may be fixed at 100 or 0 respectively in a 3-parameter fit. The Hill Coefficient is normally allowed to float but may also be fixed at 1 in a 3-parameter fit. Y is the % inhibition and X is the compound concentration.

Sequence of catalytic domain of human PARP14 (Q460N5 1611-1801): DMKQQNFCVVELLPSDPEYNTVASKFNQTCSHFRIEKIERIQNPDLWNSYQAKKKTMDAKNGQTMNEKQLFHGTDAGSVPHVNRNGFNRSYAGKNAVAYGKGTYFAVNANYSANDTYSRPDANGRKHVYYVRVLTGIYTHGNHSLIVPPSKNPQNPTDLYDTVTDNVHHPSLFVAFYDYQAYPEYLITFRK

Row | IC50 | Compound
1 | 1000 to 10000 nM | Cc1cccc2c(=O)[nH]c(CS[C@H]3CC[C@@H](O)CC3)nc12 [Example 24, 2-((((cis)-4-Hydroxycyclohexyl)thio)methyl)-8-methylquinazolin-4(3H)-one]
2 | > 10000 nM | Cc1cccc2c(=O)[nH]c(CSC3CNC3)nc12 [Example 25, 2-((Azetidin-3-ylthio)methyl)-8-methylquinazolin-4(3H)-one Trifluoroacetate]
3 | 1000 to 10000 nM | CO[C@H]1CC[C@H](SCc2nc3c(C)cccc3c(=O)[nH]2)CC1 [Example 26, 2-((((trans)-4-Methoxycyclohexyl)thio)methyl)-8-methylquinazolin-4(3H)-one]
4 | 1000 to 10000 nM | CO[C@H]1CC[C@@H](SCc2nc3c(C)cccc3c(=O)[nH]2)CC1 [Example 27, 2-((((cis)-4-Methoxycyclohexyl)thio)methyl)-8-methylquinazolin-4(3H)-one]
5 | > 10000 nM | N#Cc1cccc2c(=O)[nH]c(CSC3CCOCC3)nc12 [Example 28, 4-Oxo-2-(((tetrahydro-2H-pyran-4-yl)thio)methyl)-3,4-dihydroquinazoline-8-carbonitrile]
6 | 1000 to 10000 nM | O=c1[nH]c(CSC2CCOCC2)nc2cc(Oc3ccccc3)ccc12 [Example 29, 7-Phenoxy-2-(((tetrahydro-2H-pyran-4-yl)thio)methyl)quinazolin-4(3H)-one]
7 | 1000 to 10000 nM | O=c1[nH]c(CSC2CCOCC2)nc2cc(F)ccc12 [Example 30, 7-Fluoro-2-(((tetrahydro-2H-pyran-4-yl)thio)methyl)quinazolin-4(3H)-one]
8 | 1000 to 10000 nM | COc1ccc2c(=O)[nH]c(CSC3CCOCC3)nc2c1 [Example 31, 7-Methoxy-2-(((tetrahydro-2H-pyran-4-yl)thio)methyl)quinazolin-4(3H)-one]
9 | 1000 to 10000 nM | Cc1cccc2c(=O)[nH]c(CSC3CCCN(C)C3)nc12 (centres unmarked) [Example 32, 8-Methyl-2-(((1-methylpiperidin-3-yl)thio)methyl)quinazolin-4(3H)-one]
10 | < 1000 nM | Cc1c(F)ccc2c(=O)[nH]c(CSC3CCOCC3)nc12 [Example 33, 7-Fluoro-8-methyl-2-(((tetrahydro-2H-pyran-4-yl)thio)methyl)quinazolin-4(3H)-one]
11 | < 1000 nM | Cc1ccc(Cl)c2c(=O)[nH]c(CSC3CCOCC3)nc12 [Example 34, 5-Chloro-8-methyl-2-(((tetrahydro-2H-pyran-4-yl)thio)methyl)quinazolin-4(3H)-one]
12 | < 1000 nM | Cc1ccc(C(F)(F)F)c2c(=O)[nH]c(CSC3CCOCC3)nc12 [Example 35, 8-Methyl-2-(((tetrahydro-2H-pyran-4-yl)thio)methyl)-5-(trifluoromethyl)quinazolin-4(3H)-one]
13 | > 10000 nM | O=c1[nH]c(CSC2CCOCC2)nc2cccnc12 [Example 36, 2-(((Tetrahydro-2H-pyran-4-yl)thio)methyl)pyrido[3,2-d]pyrimidin-4(3H)-one]
14 | > 10000 nM | O=c1[nH]c(CSC2CCOCC2)nc2cnccc12 [Example 37, 2-(((Tetrahydro-2H-pyran-4-yl)thio)methyl)pyrido[3,4-d]pyrimidin-4(3H)-one]
15 | > 10000 nM | Cc1cccc2c(=O)[nH]c(CS[C@H]3C[C@H](OCc4ccccc4)C3)nc12 [Example 38, 2-((((trans)-3-(Benzyloxy)cyclobutyl)thio)methyl)-8-methylquinazolin-4(3H)-one]
16 | > 10000 nM | Cc1cccc2c(=O)[nH]c(CSC3COC3)nc12 [Example 39, 8-Methyl-2-((oxetan-3-ylthio)methyl)quinazolin-4(3H)-one]

Row | IC50 | Compound
17 | > 10000 nM | O=c1[nH]c(CSC2CCOCC2)nc2ccncc12 [Example 40, 2-(((Tetrahydro-2H-pyran-4-yl)thio)methyl)pyrido[4,3-d]pyrimidin-4(3H)-one]
18 | > 10000 nM | Cc1ccnc2c(=O)[nH]c(CSC3CCOCC3)nc12 [Example 41, 8-Methyl-2-(((tetrahydro-2H-pyran-4-yl)thio)methyl)pyrido[3,2-d]pyrimidin-4(3H)-one]
19 | > 10000 nM | Cc1nccc2c(=O)[nH]c(CSC3CCOCC3)nc12 [Example 42, 8-Methyl-2-(((tetrahydro-2H-pyran-4-yl)thio)methyl)pyrido[3,4-d]pyrimidin-4(3H)-one]
20 | > 10000 nM | O=c1[nH]c(CSC2CCOCC2)nc2ncccc12 [Example 43, 2-(((Tetrahydro-2H-pyran-4-yl)thio)methyl)pyrido[2,3-d]pyrimidin-4(3H)-one]
21 | < 1000 nM | Cc1cc(Cl)cc2c(=O)[nH]c(CSC3CCOCC3)nc12 [Example 44, 6-Chloro-8-methyl-2-(((tetrahydro-2H-pyran-4-yl)thio)methyl)quinazolin-4(3H)-one]
22 | 1000 to 10000 nM | O=c1[nH]c(CSC2CCOCC2)nc2c(F)c(F)ccc12 [Example 45, 7,8-Difluoro-2-(((tetrahydro-2H-pyran-4-yl)thio)methyl)quinazolin-4(3H)-one]
23 | 1000 to 10000 nM | O=c1[nH]c(CS[C@H]2CC[C@H](O)CC2)nc2cc(F)ccc12 [Example 46, 7-Fluoro-2-((((trans)-4-hydroxycyclohexyl)thio)methyl)quinazolin-4(3H)-one]
24 | 1000 to 10000 nM | Cc1cccc2c(=O)[nH]c(CS[C@H]3C[C@H](O)C3)nc12 [Example 47, 2-(((trans-3-Hydroxycyclobutyl)thio)methyl)-8-methylquinazolin-4(3H)-one]
25 | < 1000 nM | Cc1ccc(F)c2c(=O)[nH]c(CSC3CCC(O)CC3)nc12 (centres unmarked) [Example 56, 5-Fluoro-2-(((4-hydroxycyclohexyl)thio)methyl)-8-methylquinazolin-4(3H)-one]
26 | < 1000 nM | Cc1ccc(F)c2c(=O)[nH]c(CS[C@H]3CC[C@H](O)CC3)nc12 [Example 57, 5-Fluoro-2-(((trans-4-hydroxycyclohexyl)thio)methyl)-8-methylquinazolin-4(3H)-one]
27 | < 1000 nM | Cc1ccc(F)c2c(=O)[nH]c(CS[C@H]3CC[C@@H](O)CC3)nc12 [Example 58, 5-Fluoro-2-(((cis-4-hydroxycyclohexyl)thio)methyl)-8-methylquinazolin-4(3H)-one]
28 | < 1000 nM | Cc1ccc(C(F)(F)F)c2c(=O)[nH]c(CSC3CCC(O)CC3)nc12 (centres unmarked) [Example 59, 2-(((4-Hydroxycyclohexyl)thio)methyl)-8-methyl-5-(trifluoromethyl)quinazolin-4(3H)-one]
29 | < 1000 nM | Cc1ccc(C(F)(F)F)c2c(=O)[nH]c(CS[C@H]3CC[C@H](O)CC3)nc12 [Example 60, 2-(((trans-4-Hydroxycyclohexyl)thio)methyl)-8-methyl-5-(trifluoromethyl) quinazolin-4(3H)-one]
30 | < 1000 nM | Cc1ccc(C(F)(F)F)c2c(=O)[nH]c(CS[C@H]3CC[C@@H](O)CC3)nc12 [Example 61, 2-(((cis-4-Hydroxycyclohexyl)thio)methyl)-8-methyl-5-(trifluoromethyl) quinazolin-4(3H)-one]
31 | < 1000 nM | Cc1cccc2c(=O)[nH]c(CS[C@H]3CC[C@H](CO)CC3)nc12 [Example 62, 2-(((trans-4-(Hydroxymethyl)cyclohexyl)thio)methyl)-8-methylquinazolin-4(3H)-one]
32 | 1000 to 10000 nM | Cc1cccc2c(=O)[nH]c(CS[C@H]3CC[C@@H](CO)CC3)nc12 [Example 63, 2-(((cis-4-(Hydroxymethyl)cyclohexyl)thio)methyl)-8-methylquinazolin-4(3H)-one]

Row | Compound | IC50
33 | Cc1cccc2c(=O)[nH]c(CSC3CCCNC3)nc12 (centres unmarked) [Example 48, 8-Methyl-2-((piperidin-3-ylthio)methyl)quinazolin-4(3H)-one Hydrochloride] | 1000 to 10000 nM
34 | Cc1cccc2c(=O)[nH]c(CS[C@H]3CC[C@H](N)CC3)nc12 [Example 49, 2-(((trans-4-Aminocyclohexyl)thio)methyl)-8-methylquinazolin-4(3H)-one Hydrochloride] | 1000 to 10000 nM
35 | Cc1cccc2c(=O)[nH]c(CS[C@H]3CC[C@@H](N)CC3)nc12 [Example 50, 2-(((cis-4-Aminocyclohexyl)thio)methyl)-8-methylquinazolin-4(3H)-one Trifluoroacetic Acid] | 1000 to 10000 nM
36 | Cc1ccc(F)c2c(=O)[nH]c(CSC3CCNCC3)nc12 [Example 51, 5-Fluoro-8-methyl-2-((piperidin-4-ylthio)methyl)quinazolin-4(3H)-one Hydrochloride] | < 1000 nM
37 | Cc1cccc2c(=O)[nH]c(CS[C@H]3C[C@H](N)C3)nc12 [Example 52, 2-(((trans-3-Aminocyclobutyl)thio)methyl)-8-methylquinazolin-4(3H)-one Hydrochloride] | 1000 to 10000 nM
38 | Cc1cccc2c(=O)[nH]c(CSC3CCCC(N)CC3)nc12 (centres unmarked) [Example 53, 2-(((4-Aminocycloheptyl)thio)methyl)-8-methylquinazolin-4(3H)-one Trifluoroacetate] | < 1000 nM
